In brackets after ≈: the same amount, converted by molar mass.
Target: T1, Tyrosinase (Agaricus bisporus, UniProt O42713)
T1 sequence (O42713 whole entry): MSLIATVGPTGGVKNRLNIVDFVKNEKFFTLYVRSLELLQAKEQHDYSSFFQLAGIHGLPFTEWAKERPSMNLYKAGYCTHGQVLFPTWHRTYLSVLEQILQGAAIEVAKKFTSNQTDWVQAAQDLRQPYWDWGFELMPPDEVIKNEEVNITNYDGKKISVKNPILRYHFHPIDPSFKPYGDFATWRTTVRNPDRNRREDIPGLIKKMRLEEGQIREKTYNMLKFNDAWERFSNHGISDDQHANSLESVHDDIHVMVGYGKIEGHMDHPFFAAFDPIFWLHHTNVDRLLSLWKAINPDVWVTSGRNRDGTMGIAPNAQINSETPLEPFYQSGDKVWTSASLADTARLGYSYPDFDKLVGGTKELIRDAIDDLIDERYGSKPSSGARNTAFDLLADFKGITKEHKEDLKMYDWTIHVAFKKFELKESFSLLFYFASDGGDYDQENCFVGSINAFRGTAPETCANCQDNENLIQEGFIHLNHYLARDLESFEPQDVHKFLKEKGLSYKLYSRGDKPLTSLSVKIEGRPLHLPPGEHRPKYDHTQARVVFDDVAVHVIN
Assay: Competitive inhibition of mushroom tyrosinase using L-DOPA as substrate after 2 mins by Lineweaver-Burk plot
Settings: not given

| Ki | Structure (SMILES) |
| --- | --- |
| 11.2 µM | CCCOC1Cc2c(C(C)=O)c(O)c3ccccc3c2O1 (stereo unspecified) |

Tested on: Staphylococcus aureus
Assay: Antibacterial activity against Staphylococcus aureus KCTC-1916 after 24 hrs by twofold dilution method
Type: functional
Settings: KCTC-1916, 24 h

| Structure (SMILES) | MIC |
| --- | --- |
| COC1(C)Cc2c(C(C)=O)c(O)c3ccccc3c2O1 (stereo unspecified) | 0.5 µg/mL (≈ 1.84 µM) |
| CC(=O)c1c2c(c3ccccc3c1O)OC(OCC(C)C)C2 (stereo unspecified) | 32 µg/mL (≈ 107 µM) |
| CCCCOC1Cc2c(C(C)=O)c(O)c3ccccc3c2O1 (stereo unspecified) | 8 µg/mL (≈ 26.6 µM) |
| CC(=O)c1c2c(c3ccccc3c1O)O[C@H]1OCC[C@@H]21 (relative stereo) | 8 µg/mL (≈ 29.6 µM) |
| CC(=O)c1c2c(c3ccccc3c1O)O[C@H]1OCCC[C@@H]21 (relative stereo) | 0.5 µg/mL (≈ 1.76 µM) |
| CC(=O)c1c2c(c3ccccc3c1O)OC(C)(c1ccccc1)C2 (stereo unspecified) | 32 µg/mL (≈ 101 µM) |
| COc1ccc(C2Cc3c(C(C)=O)c(O)c4ccccc4c3O2)cc1 (stereo unspecified) | 32 µg/mL (≈ 95.7 µM) |

Further lines, results first:

| MIC | Structure (SMILES) |
| --- | --- |
| 0.5 µg/mL (≈ 1.75 µM) | CCCOC1Cc2c(C(C)=O)c(O)c3ccccc3c2O1 (stereo unspecified) |
| 0.5 µg/mL (≈ 1.84 µM) | CCOC1Cc2c(C(C)=O)c(O)c3ccccc3c2O1 (stereo unspecified) |
| 0.5 µg/mL (≈ 1.75 µM) | CCO[C@@H]1Oc2c(c(C(C)=O)c(O)c3ccccc23)[C@@H]1C (relative stereo) |

Target: T1, Tyrosinase
Assay: not given
Settings: not given

| Structure (SMILES) | IC50 |
| --- | --- |
| COC1(C)Cc2c(C(C)=O)c(O)c3ccccc3c2O1 (stereo unspecified) | > 367 µM |
| CC(=O)c1c2c(c3ccccc3c1O)OC(OCC(C)C)C2 (stereo unspecified) | 198 µM |
| CCCCOC1Cc2c(C(C)=O)c(O)c3ccccc3c2O1 (stereo unspecified) | 232 µM |
| CC(=O)c1c2c(c3ccccc3c1O)O[C@H]1OCC[C@@H]21 (relative stereo) | > 370 µM |
| CC(=O)c1c2c(c3ccccc3c1O)O[C@H]1OCCC[C@@H]21 (relative stereo) | 176 µM |
| CC(=O)c1c2c(c3ccccc3c1O)OC(C)(c1ccccc1)C2 (stereo unspecified) | > 314 µM |
| COc1ccc(C2Cc3c(C(C)=O)c(O)c4ccccc4c3O2)cc1 (stereo unspecified) | > 299 µM |

More lines, now with the values ahead:

| IC50 | Structure (SMILES) |
| --- | --- |
| 31.1 µM | CCCOC1Cc2c(C(C)=O)c(O)c3ccccc3c2O1 (stereo unspecified) |
| 305 µM | CCOC1Cc2c(C(C)=O)c(O)c3ccccc3c2O1 (stereo unspecified) |
| > 349 µM | CCO[C@@H]1Oc2c(c(C(C)=O)c(O)c3ccccc23)[C@@H]1C (relative stereo) |
| 107 µM | CCO[C@H]1Oc2c(c(C(C)=O)c(O)c3ccccc23)[C@@H]1C (relative stereo) |

Tested on: not given
Assay: not given
Settings: not given

| Structure (SMILES) | IC50 |
| --- | --- |
| COC1(C)Cc2c(C(C)=O)c(O)c3ccccc3c2O1 (stereo unspecified) | 31.47 µg/mL (≈ 116 µM) |
| CC(=O)c1c2c(c3ccccc3c1O)OC(OCC(C)C)C2 (stereo unspecified) | 6.3 µg/mL (≈ 21 µM) |
| CCCCOC1Cc2c(C(C)=O)c(O)c3ccccc3c2O1 (stereo unspecified) | 5.01 µg/mL (≈ 16.7 µM) |
| CC(=O)c1c2c(c3ccccc3c1O)O[C@H]1OCC[C@@H]21 (relative stereo) | > 100 µg/mL |
| CC(=O)c1c2c(c3ccccc3c1O)O[C@H]1OCCC[C@@H]21 (relative stereo) | > 100 µg/mL |
| CC(=O)c1c2c(c3ccccc3c1O)OC(C)(c1ccccc1)C2 (stereo unspecified) | 77.62 µg/mL (≈ 244 µM) |
| COc1ccc(C2Cc3c(C(C)=O)c(O)c4ccccc4c3O2)cc1 (stereo unspecified) | > 100 µg/mL |

The next lines start with the values.

| IC50 | Structure (SMILES) |
| --- | --- |
| 3.33 µg/mL (≈ 11.6 µM) | CCCOC1Cc2c(C(C)=O)c(O)c3ccccc3c2O1 (stereo unspecified) |
| 25.11 µg/mL (≈ 92.2 µM) | CCOC1Cc2c(C(C)=O)c(O)c3ccccc3c2O1 (stereo unspecified) |
| 62.51 µg/mL (≈ 218 µM) | CCO[C@@H]1Oc2c(c(C(C)=O)c(O)c3ccccc23)[C@@H]1C (relative stereo) |
| > 100 µg/mL | CCO[C@H]1Oc2c(c(C(C)=O)c(O)c3ccccc23)[C@@H]1C (relative stereo) |

Tested on: Escherichia coli
Assay: microbe, parasite or virus in culture
Settings: KCTC-1924, 24 h
Description: Antibacterial activity against Escherichia coli KCTC-1924 after 24 hrs by twofold dilution method

| Structure (SMILES) | MIC |
| --- | --- |
| COC1(C)Cc2c(C(C)=O)c(O)c3ccccc3c2O1 (stereo unspecified) | 16 µg/mL (≈ 58.8 µM) |
| CCCCOC1Cc2c(C(C)=O)c(O)c3ccccc3c2O1 (stereo unspecified) | 0.5 µg/mL (≈ 1.66 µM) |
| CC(=O)c1c2c(c3ccccc3c1O)O[C@H]1OCC[C@@H]21 (relative stereo) | 2 µg/mL (≈ 7.4 µM) |
| CC(=O)c1c2c(c3ccccc3c1O)O[C@H]1OCCC[C@@H]21 (relative stereo) | 32 µg/mL (≈ 113 µM) |
| CC(=O)c1c2c(c3ccccc3c1O)OC(C)(c1ccccc1)C2 (stereo unspecified) | 2 µg/mL (≈ 6.28 µM) |

Results, then the compound that gave them:

| MIC | Structure (SMILES) |
| --- | --- |
| 0.5 µg/mL (≈ 1.75 µM) | CCCOC1Cc2c(C(C)=O)c(O)c3ccccc3c2O1 (stereo unspecified) |
| 16 µg/mL (≈ 58.8 µM) | CCOC1Cc2c(C(C)=O)c(O)c3ccccc3c2O1 (stereo unspecified) |
| 32 µg/mL (≈ 112 µM) | CCO[C@@H]1Oc2c(c(C(C)=O)c(O)c3ccccc23)[C@@H]1C (relative stereo) |

Source: ChEMBL document CHEMBL3351650, “Anti-tyrosinase, antioxidant, and antibacterial activities of novel 5-hydroxy-4-acetyl-2,3-dihydronaphtho[1,2-b]furans” (Eur J Med Chem, 2014)
